Data published in patent US20070166547A1, “Use of a layer consisting of hydrophobic linear, or two-dimensional polycyclic aromatics as a barrier layer or an encapsulation and electric components constructed with a layer of this type and comprising organic polymers” (priority 2003, published 2007).
Marks after values point to notes of the source that are not given here.

How the values were obtained:
[1] = test system: embyronic fibroblasts of mouse NIH-3T3; assay: Endocellular pHi of fibroblasts by microspectrofluorimetry (FDA, BCECF-AM); type: cell-based; details: for rise of pHi: fibroblasts in an attached spread state; for increase of pHi: 20 minutes
Summary of the method: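 Mouse NIH-3T3 fibroblasts loaded 5 min at 37° C with 5.0 mkM FDA or 2.0 mkM BCECF-AM; medium with 5.0 mM HEPES and 15.0 mM bicarbonate. Excitation 490 nm, emission ratio 535/570 nm averaged over 40-60 cells at 37° C. pHi calibrated by nigericin in high-K+ buffers, pH 6.2-7.6.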

plasma hemostasis = assay: Thrombin time after intravenous administration; type: in vivo, rabbit
Method: The investigations were performed on 72 rabbits of the “Chinchilla” breed with a mass of 2.5±0.3 kg, who were administered which solutions of compounds 2, 15, 21, 37 in doses of 15, 30 and 60 mg/kg intravenously. The experiments included the thrombin-test (series No. 7300) and the coagulability-test (series No. 5000) purchased from the scientific-and-production association (SPA) “Renam”, thromboplastin (series No. 240600) and calcium chloride purchased from the SPA “MedioLab”
The static parameters of the blood and plasma coagulation (partial activated thromboplastin time, thrombin time, maximum coagulation activity (test for auto coagulation) were determined using the Behnk Electronic coagulometer (Germany). The operating principle of this instrument is based on the fact that the formed blood clot breaks the contacts of the pulse counter in the flask-pin circuit, said pin permanently oscillating in a vertical plane. The moment of formation of the clot is registered by stopping the stop watch hand.
The measurements were effected at a constant temperature of 37° C. maintained by a temperature control unit.
The “thrombin time” characterizes the rate of transformation of fibrinogen into fibrin. It was determined by measuring the coagulation time of plasma deprived of thrombocytes under the effect of thrombin standardized by the control plasma.
0.2 ml of a thrombin solution was added to 0.2 ml of the test blood plasma of experimental animals, from whom the blood was taken 15, 30, 60 and 120 minutes after the intravenous administration of compounds 2, 15, 21, 37 according to the invention in doses of 15, 30, 60 mg/kg incubated for 1 minute at a temperature of 37° C. and the time of formation of clot T2 in seconds in a coagulometer of the Behnk Electronic Company (Germany).

thymus = assay: Morphine abstinence model: thymus condition; type: in vivo, rats; details: compound alone

SMILES: Nc1cccc2c(=O)[nH][nH]c(=O)c12.[Na] [Compound 15, sodium salt of 5-amino-benzo[d]-3H-pyridazine-1,4-dione]
- rise of pHi ([1]; 2.0 mkg/ml): 0.10 unit pHi
- rise of pHi ([1]; 20.0 mkg/ml): 0.07 unit pHi
- increase of pHi ([1]; medium with 10.0% blood serum, 0.02 mkg/ml, suspension): do not initiate a change of pH
- increase of pHi ([1]; medium with 10.0% blood serum, 0.2 mkg/ml, suspension): 0.1 unit pH
- increase of pHi ([1]; medium with 10.0% blood serum, 2.0 mkg/ml, suspension): 0.12 unit pH
- increase of pHi ([1]; medium with 10.0% blood serum, 20.0 mkg/ml, suspension): do not initiate a change of pH
- increase of pHi ([1]; medium without blood serum, 0.02 mkg/ml): no effect was found
- increase of pHi ([1]; medium without blood serum, 0.2 mkg/ml): no effect was found
- increase of pHi ([1]; medium without blood serum, 2.0 mkg/ml): 0.08 unit pHi
- increase of pHi ([1]; medium without blood serum, 20.0 mkg/ml): 0.08 unit pHi
- increase of pHi ([1]; medium without blood serum, 200 mkg/ml): no effect was found
- increase of pHi ([1]; medium without blood serum, 1000 mkg/ml): no effect was found
- T2, s After 120 minutes (thrombin time) (plasma hemostasis; dose 15.0 mg/kg intravenously): 15.5* s
- T2, s after 15 minutes (thrombin time) (plasma hemostasis; dose 15.0 mg/kg intravenously): 17.0* s
- T2, s after 30 minutes (thrombin time) (plasma hemostasis; dose 15.0 mg/kg intravenously): 18.5* s
- T2, s after 60 minutes (thrombin time) (plasma hemostasis; dose 15.0 mg/kg intravenously): 16.5* s
- T2, s After 120 minutes (thrombin time) (plasma hemostasis; dose 30.0 mg/kg intravenously): 15.0* s
- T2, s after 15 minutes (thrombin time) (plasma hemostasis; dose 30.0 mg/kg intravenously): 19.7* s
- T2, s after 30 minutes (thrombin time) (plasma hemostasis; dose 30.0 mg/kg intravenously): 20.5* s
- T2, s after 60 minutes (thrombin time) (plasma hemostasis; dose 30.0 mg/kg intravenously): 21.3* s
- T2, s After 120 minutes (thrombin time) (plasma hemostasis; dose 60.0 mg/kg intravenously): 14.7* s
- T2, s after 15 minutes (thrombin time) (plasma hemostasis; dose 60.0 mg/kg intravenously): 16.8* s
- T2, s after 30 minutes (thrombin time) (plasma hemostasis; dose 60.0 mg/kg intravenously): 18.0* s
- T2, s after 60 minutes (thrombin time) (plasma hemostasis; dose 60.0 mg/kg intravenously): 16.5* s
- Nitrites, thymus Supernatant, Administration of compounds (thymus): 0.407 ± 0.02 nmol/mg of protein
- Thymus mass, Administration of compounds (thymus): 298 ± 25 mg
